Measured values from paper PMC7418971 (PLoS Pathogens, 2020).

What was measured:
[1] = target: Eng195 M2-S31 CD peptide (aa 18-60) (Influenza A virus, UniProt P06821, A27V/L43T/N31S); format: biochemical, Influenza A/England/195/2009 (H1N1)
[2] = target: Eng195 M2-N31 CD peptide (aa 18-60) (Influenza A virus, UniProt P06821, A27V/L43T); format: biochemical, Influenza A/England/195/2009 (H1N1)
Eng195 in MDCK culture = format: cell-based, influenza A virus
[3] = system: E195 engineered to express M2-S31; format: cell-based, influenza A virus
[4] = target: Eng195 M2-N31 TM peptide (aa 18-46) (Influenza A virus, UniProt P06821, A27V/L43T); format: biochemical, Influenza A/England/195/2009 (H1N1)
M2-N31 TM peptides = M2-N31 TM peptides (Influenza A virus, UniProt P06821, A27V/L43T); format: biochemical, Influenza A/England/195/2009 (H1N1)
[5] = target: M2-N31 CD peptide channels (Influenza A virus, UniProt P06821, A27V/L43T); format: biochemical, Influenza A/England/195/2009 (H1N1)
M2-S31N (H3N2 Udorn) = settings: read-out: IC50 in two-electrode voltage clamp assay; cited from earlier work

CC(N)C12CC3CC(CC(C3)C1)C2 (racemic) [rimantadine, (RS)-1-(1-adamantyl)ethanamine, reference compound]
effect on M2-S31 CD peptide channel activity [1]: blocked activity | inhibition of channel activity of M2-WT (S31) [1]: 50% | effect on M2-N31 CD peptide channel activity [2]: only blocked activity of Eng195 M2-S31 peptides | inhibitor concentration under which virus could be expanded from plaques (Eng195 in MDCK culture): 80 µM | time for cytopathic effects (CPE) to manifest on plaque expansion (Eng195 in MDCK culture): ≤ 24 h

CN1CCN(C(=O)c2ccc3ccccc3c2)CC1 [B]
effect on M2-S31 CD peptide channel activity [1]: activity versus M2-S31 | effect on M2-N31 CD peptide channel activity [2]: not N31 | antiviral effect versus E195 with M2-S31 (N31S) [3]: neither B nor K exhibited antiviral effects

Cc1c2ccccc2n2cc(-c3ccccc3)nc(C(C)C)c12 [DL7]
% M2 activity (40 µM) S31 CD [1]: 31.3% | % M2 activity (40 µM) N31 CD [2]: 19.5% | % M2 activity (40 µM) N31 TM [4]: 15.0%

Cc1ccc2nc(Oc3ccccc3)ccc2c1 [DP9]
% M2 activity (40 µM) S31 CD [1]: 97.4% | % M2 activity (40 µM) N31 CD [2]: 65.8% | % M2 activity (40 µM) N31 TM [4]: 100%

c1cc2nc(C34CC5CC(CC(C5)C3)C4)[nH]c2cn1 [D]
effect on M2-S31 CD peptide channel activity [1]: inhibited | effect on M2-N31 CD peptide channel activity [2]: inhibited

CCN1CCC(NC2C3CC4CC(C3)CC2C4)CC1 (stereo not shown) [E]
effect on M2-S31 CD peptide channel activity [1]: no activity | effect on M2-N31 CD peptide channel activity [2]: no activity

OC(CN1CCCC1)C12CC3CC(CC(C3)C1)C2 (stereo not shown) [G]
effect on M2-S31 CD peptide channel activity [1]: no activity | effect on M2-N31 CD peptide channel activity [2]: no activity

Cc1ncc(C23CC4CC(CC(C4)C2)C3)[nH]1 [H]
effect on M2-S31 CD peptide channel activity [1]: inhibited | effect on M2-N31 CD peptide channel activity [2]: inhibited

OCCNC12CC3CC(CC(C3)C1)C2 [J]
effect on M2-S31 CD peptide channel activity [1]: inhibited | effect on M2-N31 CD peptide channel activity [2]: inhibited

O=C(Nc1nnc[nH]1)c1cc2ccccc2o1 [K]
effect on M2-S31 CD peptide channel activity [1]: activity versus M2-S31 | effect on M2-N31 CD peptide channel activity [2]: not N31 | antiviral effect versus E195 with M2-S31 (N31S) [3]: neither B nor K exhibited antiviral effects

COc1ccccc1NC(=S)NC(=O)c1cc2ccccc2cc1OC [L1.1]
% M2 activity (40 µM) S31 CD [1]: 41.8% | % M2 activity (40 µM) N31 CD [2]: 32.8% | % M2 activity (40 µM) N31 TM [4]: 22.0% | inhibitor concentration under which virus could be expanded from plaques (Eng195 in MDCK culture): ≤ 20 µM | time for cytopathic effects (CPE) to manifest on plaque expansion (Eng195 in MDCK culture): at least 48 h | antiviral effect versus E195 with M2-S31 (N31S) [3]: active | inhibition of M2-N31 TM peptide channels in bilayer (M2-N31 TM peptides): inhibited TM peptides

Nc1nc(-c2cc3c(cc2Cl)OCCO3)cs1 [L]
effect on M2-S31 CD peptide channel activity [1]: inactive | effect on M2-N31 CD peptide channel activity [2]: inactive

c1csc(-c2cc(CNC34CC5CC(CC(C5)C3)C4)no2)c1 [M2WJ332, (3S,5S,7S)-N-{[5-(thiophen-2-yl)-1,2-oxazol-3-yl]methyl}tricycle[3.3.1.1~3,7~]decan-1-aminium, reference compound]
% M2 activity (40 µM) S31 CD [1]: 85% | % M2 activity (40 µM) N31 CD [2]: 58.4% | effect on M2-N31 CD peptide channel activity [2]: blocked the activity | inhibition of channel activity of the N31 CD peptide [2]: ~ 40% | effect on CD peptide activity in bilayer [5]: abrogate activity | inhibition of M2-N31 CD peptide channels in bilayer [5]: sensitive to nanomolar concentrations | % M2 activity (40 µM) N31 TM [4]: 100% | effect on M2-N31 TM peptide channel activity [4]: no TM-specific activity | inhibitor concentration under which virus could be expanded from plaques (Eng195 in MDCK culture): 80 µM | plaques retained by selected supernatants (Eng195 in MDCK culture): ~ 30 % of DMSO control | time for cytopathic effects (CPE) to manifest on plaque expansion (Eng195 in MDCK culture): ≤ 24 h | IC50 (M2-S31N (H3N2 Udorn)): 16 µM | effect on TM peptide activity in bilayer (M2-N31 TM peptides): modest effect | inhibition of M2-N31 TM peptide channels in bilayer (M2-N31 TM peptides): retained channel activity

CCCCCCCCCN1C[C@H](O)[C@@H](O)[C@H](O)[C@H]1CO [NNDNJ, reference compound]
effect on M2-S31 CD peptide channel activity [1]: blocked the activity | effect on M2-N31 CD peptide channel activity [2]: blocked the activity
